Measurements: ChEMBL document CHEMBL1201862, “PubChem BioAssay data set” (2004)
Each block holds one molecule with its values, some of them ahead of it. Activity calls are given as the source filed them.

Assays:
[1] = target: Protein disulfide-isomerase (Homo sapiens, UniProt P07237); assay: PDI inhibitors, insulin aggregation turbidity, dose response, biochemical, absorbance, cherry-picked samples (AID 602350); assay type: functional
Caspase-3 [2] = target: T1, Caspase-3 (Homo sapiens, UniProt P42574); assay: caspase-3 inhibitors as off-family protease, SAR follow-up, selectivity assay for SENP protease inhibitor project, biochemical, luminescence, set 2 (AID 588599); assay type: functional
T1 sequence (P42574 whole entry): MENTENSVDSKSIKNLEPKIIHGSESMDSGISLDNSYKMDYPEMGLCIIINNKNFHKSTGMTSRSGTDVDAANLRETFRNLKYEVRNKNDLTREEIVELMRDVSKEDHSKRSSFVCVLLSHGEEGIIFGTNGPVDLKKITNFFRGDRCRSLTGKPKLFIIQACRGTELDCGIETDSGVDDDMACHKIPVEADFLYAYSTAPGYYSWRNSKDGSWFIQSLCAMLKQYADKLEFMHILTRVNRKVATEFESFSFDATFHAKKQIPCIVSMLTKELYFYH

[3] = target: T2, Sentrin-specific protease 8 (Homo sapiens, UniProt Q96LD8); assay: SENP8 protease inhibitors, SAR follow-up, biochemical, luminescence, set 2 (AID 588601); assay type: functional
T2 sequence (Q96LD8 whole entry): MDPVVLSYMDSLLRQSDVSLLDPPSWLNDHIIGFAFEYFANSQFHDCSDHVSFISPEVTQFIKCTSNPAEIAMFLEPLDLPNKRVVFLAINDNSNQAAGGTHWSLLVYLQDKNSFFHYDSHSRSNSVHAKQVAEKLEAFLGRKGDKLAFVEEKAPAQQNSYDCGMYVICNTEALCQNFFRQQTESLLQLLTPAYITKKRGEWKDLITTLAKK

[4] = target: T3, Sentrin-specific protease 7 (Homo sapiens, UniProt Q9BQF6); assay: SENP7 protease inhibitors, SAR follow-up, biochemical, luminescence, set 2 (AID 588600); assay type: functional
T3 sequence (Q9BQF6 whole entry): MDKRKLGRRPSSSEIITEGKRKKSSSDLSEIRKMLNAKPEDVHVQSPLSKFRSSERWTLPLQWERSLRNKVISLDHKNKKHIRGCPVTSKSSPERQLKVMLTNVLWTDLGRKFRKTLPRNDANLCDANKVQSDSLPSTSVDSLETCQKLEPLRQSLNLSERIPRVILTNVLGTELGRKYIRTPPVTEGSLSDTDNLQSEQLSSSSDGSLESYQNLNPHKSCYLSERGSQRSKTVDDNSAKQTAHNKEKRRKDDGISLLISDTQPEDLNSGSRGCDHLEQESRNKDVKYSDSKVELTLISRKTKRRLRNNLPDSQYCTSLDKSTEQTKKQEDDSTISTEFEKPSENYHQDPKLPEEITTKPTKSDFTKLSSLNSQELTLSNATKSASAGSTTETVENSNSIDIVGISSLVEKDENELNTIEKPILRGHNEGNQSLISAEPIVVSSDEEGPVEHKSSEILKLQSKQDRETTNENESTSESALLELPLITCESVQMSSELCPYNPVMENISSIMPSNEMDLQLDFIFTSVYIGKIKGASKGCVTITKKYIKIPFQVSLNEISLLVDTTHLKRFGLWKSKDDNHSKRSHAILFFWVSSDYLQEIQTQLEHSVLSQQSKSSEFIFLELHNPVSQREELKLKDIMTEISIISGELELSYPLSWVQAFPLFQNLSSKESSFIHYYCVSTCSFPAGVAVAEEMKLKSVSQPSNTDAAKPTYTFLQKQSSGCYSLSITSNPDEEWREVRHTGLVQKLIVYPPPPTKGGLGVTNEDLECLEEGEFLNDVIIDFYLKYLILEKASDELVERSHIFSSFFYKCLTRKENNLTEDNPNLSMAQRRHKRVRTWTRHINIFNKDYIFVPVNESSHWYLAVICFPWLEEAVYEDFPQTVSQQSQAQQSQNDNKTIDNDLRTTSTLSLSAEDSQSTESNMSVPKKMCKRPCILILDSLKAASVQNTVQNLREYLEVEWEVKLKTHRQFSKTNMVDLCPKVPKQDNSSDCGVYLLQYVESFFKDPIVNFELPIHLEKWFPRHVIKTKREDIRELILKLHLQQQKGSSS

[5] = target: T4, Sentrin-specific protease 6 (Homo sapiens, UniProt Q9GZR1); assay: SENP6 protease inhibitors, SAR follow-up, biochemical, luminescence, set 2 (AID 588598); assay type: functional
T4 sequence (Q9GZR1 whole entry): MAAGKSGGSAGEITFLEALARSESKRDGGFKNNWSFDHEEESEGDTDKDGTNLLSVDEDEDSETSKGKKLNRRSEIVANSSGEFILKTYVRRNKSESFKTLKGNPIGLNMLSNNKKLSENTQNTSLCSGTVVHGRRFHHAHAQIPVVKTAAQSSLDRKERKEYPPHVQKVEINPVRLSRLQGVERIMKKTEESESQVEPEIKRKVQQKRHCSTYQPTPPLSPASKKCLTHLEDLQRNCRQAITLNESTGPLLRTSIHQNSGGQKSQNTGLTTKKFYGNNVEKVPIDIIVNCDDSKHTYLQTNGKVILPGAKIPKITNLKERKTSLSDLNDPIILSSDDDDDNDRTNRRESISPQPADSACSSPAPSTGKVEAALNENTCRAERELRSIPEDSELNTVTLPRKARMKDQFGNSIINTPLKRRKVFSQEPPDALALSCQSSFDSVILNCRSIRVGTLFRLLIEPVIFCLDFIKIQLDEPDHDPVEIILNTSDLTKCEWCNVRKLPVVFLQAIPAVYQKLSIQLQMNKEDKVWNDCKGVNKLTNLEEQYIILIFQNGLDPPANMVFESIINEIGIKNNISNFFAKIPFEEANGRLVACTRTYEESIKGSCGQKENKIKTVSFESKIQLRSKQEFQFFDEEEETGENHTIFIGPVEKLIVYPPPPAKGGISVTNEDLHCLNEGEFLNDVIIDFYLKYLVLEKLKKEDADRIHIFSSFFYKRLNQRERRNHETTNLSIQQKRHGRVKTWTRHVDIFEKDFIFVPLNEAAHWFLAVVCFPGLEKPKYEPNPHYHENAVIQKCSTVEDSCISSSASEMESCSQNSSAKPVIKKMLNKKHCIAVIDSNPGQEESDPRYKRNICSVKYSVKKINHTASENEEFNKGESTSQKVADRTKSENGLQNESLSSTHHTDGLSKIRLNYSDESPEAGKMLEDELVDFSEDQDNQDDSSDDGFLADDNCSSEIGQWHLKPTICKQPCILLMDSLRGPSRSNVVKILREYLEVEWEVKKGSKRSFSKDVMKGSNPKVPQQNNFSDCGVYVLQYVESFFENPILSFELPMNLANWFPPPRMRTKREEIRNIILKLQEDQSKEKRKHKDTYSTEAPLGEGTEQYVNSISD

[6] = target: T5, Orexin/Hypocretin receptor type 1 (Homo sapiens, UniProt O43613); assay: Homogeneous Time Resolved Fluorescence (HTRF)-based cell-based high throughput dose response assay for antagonists of the orexin 1 receptor (OX1R; HCRTR1). [Related pubchem assays (depositor defined):AID434989, AID435008, AID463079, AID485270, AID492963, AID492964, AID492965, AID493232, AID504717, AID504718]; assay type: functional
T5 sequence (O43613 whole entry): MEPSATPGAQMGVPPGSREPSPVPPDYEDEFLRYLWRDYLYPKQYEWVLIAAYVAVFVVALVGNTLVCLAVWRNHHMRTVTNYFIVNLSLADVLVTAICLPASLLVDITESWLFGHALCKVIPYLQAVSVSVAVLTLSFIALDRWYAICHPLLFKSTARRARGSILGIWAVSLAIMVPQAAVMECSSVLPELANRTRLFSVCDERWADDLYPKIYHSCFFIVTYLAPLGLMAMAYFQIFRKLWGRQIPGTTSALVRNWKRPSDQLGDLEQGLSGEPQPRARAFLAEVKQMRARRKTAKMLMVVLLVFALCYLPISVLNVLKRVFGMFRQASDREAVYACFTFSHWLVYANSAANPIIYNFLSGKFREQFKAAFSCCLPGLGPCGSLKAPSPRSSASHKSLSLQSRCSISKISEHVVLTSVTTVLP

CHO-K1 = assay: (§1) Counterscreen for antagonists of the orexin 1 receptor (OX1R; HCRTR1): Homogeneous time resolved fluorescence (HTRF)-based cell-based dose response assay to identify antagonists of the parental CHO-K1 cell line. [Related pubchem assays (depositor defined):AID434989, AID435008, AID463079, AID485270, AID492963, AID492964, AID492965, AID493232, AID504699, AID504701]; assay type: functional; conditions: Cricetulus griseus
[7] = C. albicans growth with fluconazole, confirmation, fluorescence, retest (AID 2467); assay type: functional, cell-based
Orexin receptor type 2 [8] = target: T6, Orexin receptor type 2 (Homo sapiens, UniProt O43614); assay: Counterscreen assay for antagonists of the orexin 1 receptor (OX1R; HCRTR1): Homogeneous Time Resolved Fluorescence (HTRF)-based cell-based dose response assay for antagonists of the orexin 2 receptor (OX2R; HCRTR2), run by assay provider.; assay type: functional
T6 sequence (O43614 whole entry): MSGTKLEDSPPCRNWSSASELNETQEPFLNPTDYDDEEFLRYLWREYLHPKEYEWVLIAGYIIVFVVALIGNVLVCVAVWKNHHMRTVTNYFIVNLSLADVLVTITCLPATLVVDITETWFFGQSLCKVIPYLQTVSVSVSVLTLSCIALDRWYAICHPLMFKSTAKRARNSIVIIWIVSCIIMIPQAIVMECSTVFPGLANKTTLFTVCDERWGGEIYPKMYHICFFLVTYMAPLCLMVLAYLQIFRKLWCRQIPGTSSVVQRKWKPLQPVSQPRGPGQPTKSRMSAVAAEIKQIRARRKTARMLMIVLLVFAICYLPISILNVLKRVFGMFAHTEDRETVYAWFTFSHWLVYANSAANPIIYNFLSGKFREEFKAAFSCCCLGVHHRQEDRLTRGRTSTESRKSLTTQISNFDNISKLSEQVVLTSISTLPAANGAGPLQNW

Orexin receptor type 2 [9] = target: T6, Orexin receptor type 2; assay: Counterscreen assay for antagonists of the orexin 1 receptor (OX1R; HCRTR1): Fluorescence-based cell-based dose response assay for antagonists of the orexin 2 receptor (OX2R; HCRTR2), run by assay provider.; assay type: functional
[10] = target: T5, Orexin/Hypocretin receptor type 1; assay: Fluorescence-based cell-based high throughput dose response assay for antagonists of the orexin 1 receptor (OX1R; HCRTR1). [Related pubchem assays (depositor defined):AID434989, AID435008, AID463079, AID485270, AID492963, AID492964, AID492965, AID493232, AID504717, AID504718]; assay type: functional
[11] = NIH-3T3 fibroblast cytotoxicity, dose response, cytotoxicity control, cell-based, fluorescence, Alamar Blue, secondary assay (AID 2327); assay type: functional;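 note: NIH-3T3 mouse fibroblasts cultured with fluconazole at 8 µg/mL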
[12] = target: NAD-dependent protein deacylase sirtuin-5, mitochondrial (Homo sapiens, UniProt Q9NXA8); assay: SIRT5 desuccinylase inhibitors, dose response, biochemical, fluorescence imaging, cherry-pick, set 5 (AID 720591);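 note: desuccinylation of succinyl peptide AMC substrate read as fluorescence after trypsin release; potency of inhibitors that lower fluorescence and may act on trypsin instead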
Sequence of NAD-dependent protein deacylase sirtuin-5, mitochondrial (Q9NXA8 whole entry): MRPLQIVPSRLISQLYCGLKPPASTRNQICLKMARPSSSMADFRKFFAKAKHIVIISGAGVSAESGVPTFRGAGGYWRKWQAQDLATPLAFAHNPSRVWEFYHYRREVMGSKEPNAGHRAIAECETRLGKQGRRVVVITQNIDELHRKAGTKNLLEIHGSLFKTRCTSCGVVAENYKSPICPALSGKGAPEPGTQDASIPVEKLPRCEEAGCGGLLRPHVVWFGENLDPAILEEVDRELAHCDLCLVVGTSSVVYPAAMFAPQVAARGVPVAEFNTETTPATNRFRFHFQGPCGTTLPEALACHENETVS

[13] = as §1, with “Fluorescence-based” for “Homogeneous time resolved fluorescence (HTRF)-based”, “cell-based high throughput” for “cell-based”, “CHO” for “CHO-K1”; assay type: functional
Caspase-3 [14] = target: T1, Caspase-3; assay: SAR Analysis of small molecule inhibitors of Sentrin-specific proteases (SENPs) using a Caspase-3 Selectivity assay. [Related pubchem assays (depositor defined):AID2540, AID2599, AID434973, AID489001]; assay type: functional
[15] = target: T3, Sentrin-specific protease 7; assay: SENP7 protease inhibitors, SAR follow-up, biochemical, luminescence (AID 504497); assay type: functional
[16] = target: T2, Sentrin-specific protease 8; assay: SENP8 protease inhibitors, SAR follow-up, biochemical, luminescence (AID 504501); assay type: functional
[17] = target: T4, Sentrin-specific protease 6; assay: SAR Analysis of small molecule inhibitors of Sentrin-specific protease 6 (SENP6) using a Luminescent assay. [Related pubchem assays (depositor defined):AID2582, AID2599]; assay type: functional

Sequence of Protein disulfide-isomerase (P07237 whole entry): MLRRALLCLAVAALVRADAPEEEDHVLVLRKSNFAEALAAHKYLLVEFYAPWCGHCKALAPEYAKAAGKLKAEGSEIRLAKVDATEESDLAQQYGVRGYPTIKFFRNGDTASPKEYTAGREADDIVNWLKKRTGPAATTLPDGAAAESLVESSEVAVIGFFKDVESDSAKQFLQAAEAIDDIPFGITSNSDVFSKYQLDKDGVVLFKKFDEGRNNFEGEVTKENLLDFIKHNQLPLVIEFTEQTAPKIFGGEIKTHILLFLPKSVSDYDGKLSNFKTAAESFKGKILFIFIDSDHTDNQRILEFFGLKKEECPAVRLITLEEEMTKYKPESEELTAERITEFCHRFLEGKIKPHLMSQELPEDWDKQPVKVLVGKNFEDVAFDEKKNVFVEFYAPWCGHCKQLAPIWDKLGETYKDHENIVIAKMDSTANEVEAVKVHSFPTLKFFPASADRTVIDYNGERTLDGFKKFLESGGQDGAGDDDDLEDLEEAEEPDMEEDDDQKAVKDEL

SMILES: C[C@H]1CN([C@@H](C)CO)C(=O)c2cc(NC(=O)Cc3cn(C)c4ccccc34)ccc2O[C@H]1CN(C)S(=O)(=O)c1ccc(F)cc1
AC50 [1]: 19.5 µM (active)

SMILES: CCOc1ccccc1C(=O)Nc1ccc2nc3n(c(=O)c2c1)CCCCC3
IC50 [6]: 0.417 µM (active)
IC50 (CHO-K1): > 66.3 µM (inactive)
EC50 [7]: > 38 µM (not active)
IC50 (Orexin receptor type 2 [8]): > 50 µM (inactive)
IC50 (Orexin receptor type 2 [9]): > 88.8 µM (inactive)
IC50 [10]: 2.58 µM (active)
EC50 [11]: > 160 µM (inactive)
AC50 [12]: > 30 µM (inactive)
IC50 [13]: > 49.8 µM (inactive)

SMILES: CCc1cccc2sc(NC(=O)c3cccc(F)c3)nc12
IC50 (Caspase-3 [14]): > 99 µM (inactive)
IC50 [15]: > 99 µM (inactive)
IC50 [16]: > 99 µM (inactive)
IC50 [17]: > 99 µM (inactive)

SMILES: Cn1c2ccc(Cl)cc2c2nc3ccccc3nc21
IC50 [6]: 1.13 µM (active)
IC50 (CHO-K1): > 66.2 µM (inactive)
IC50 (Orexin receptor type 2 [8]): > 50 µM (inactive)
IC50 (Orexin receptor type 2 [9]): > 88.8 µM (inactive)
IC50 [10]: 4.25 µM (active)
IC50 [13]: > 49.8 µM (inactive)

Now from value to molecule, other results behind:

AC50 [1]: 16.7 µM (active)
SMILES: CC[C@]12c3[nH]c4cc(-c5ccco5)ccc4c3CCN1C(=O)[C@@H](CC(=O)NCCCOC)C[C@@H]2C(=O)N1CCN(C(=O)c2ccco2)CC1

IC50 (Caspase-3 [2]): > 99 µM (inactive)
IC50 [4]: > 99 µM (inactive)
IC50 [5]: > 99 µM (inactive)
SMILES: O=C(NCc1ccccc1F)C(=O)c1c[nH]c2ccccc12
IC50 [3]: > 99 µM (inactive)

IC50 (Caspase-3 [2]): > 99 µM (inactive)
IC50 [4]: > 99 µM (inactive)
IC50 [5]: > 99 µM (inactive)
SMILES: O=C(COc1ccc(Cl)cc1Cl)NCC(=O)N/N=C/c1c[nH]c2ccccc12
IC50 [3]: > 99 µM (inactive)
